Measured values reported in patent publication US20230323358A1, “COMPOSITION AND USE OF siRNAs AGAINST VEGFR2 AND TGF-BETA1 IN COMBINATION THERAPY FOR CANCER” (Sirnaomics, Inc., priority 2021, published 2023).
Like-named read-outs stand apart in the source and are kept apart here. Oligonucleotides are written 5' to 3', each unit as a sugar letter and its base; * is a phosphorothioate linkage, no mark a phosphodiester; rarer units and linkages stand in square brackets, end groups in braces. Plain capitals give the bases only. {P} = phosphate; d = 2'-deoxy (DNA); m = 2'-O-methyl; r = 2'-OH (RNA); f = 2'-fluoro

Assays:
TGF-β1 [1] = assay: EC50 of TGF-β1 siRNA candidates before and after modification, knockdown in cells; assay type: cell-based, human
Protocol: DLD-1, RKO, U87-MG and PANC-1 cells were seeded into 24-well cell plates (1 × 10^5/well), and then siRNAs (21mer or negative control) were transfected with commercial transfection reagent (lipo2000). The siRNA transfection concentration was 100 nM. Untreated cells were set as a blank control. Total RNA was extracted from cells 24 h after transfection. Reverse transcription was performed using the kit to obtain cDNA according to the manufacturer’s instructions. Relative levels of target gene TGF- β1 mRNA expression were determined by real-time PCR, normalized to the housekeeping gene β-actin. Gene knockdown effectiveness was expressed as a percentage of the blank control. […] Therefore, TF1-21-hm3# and TF1-21-hm6# were selected as candidate sequences, and these two sequences were modified (see Table 4 for modified sequences).
The EC50 of candidate sequences before and after modification in different cells (U87-MG, DLD-1, SK-Hep-1, BxPC3, A549, HUCCT, PANC-1 and RKO) were compared. U87-MG, DLD-1, SK-Hep-1, BxPC3, A549, HUCCT, PANC-1 and RKO cells were seeded in 24-well cell plates (1 × 10^5/well) and transfected with multiple concentration gradients in different cells for siRNA candidates (modified or unmodified), use the same procedure as for primary screening. Finally, the data were plotted using the software GraphPad Prism8 and EC50 values were calculated.

TGF-β1 [2] = assay: as above; assay type: cell-based; details: 293T cells, homo, 24h, 24well (second TGF-β1 table)
MC38-hPDL1 cells = assay: In vivo pharmacodynamics on humanized PDL1 locus colorectal cancer tumors (MC38-hPDL1) in immunocompetent mice; parameters: species or system C57BL/6J mice; details: positive control 4mpk, BIW*4W, I.P.
Protocol: The STP355 drug used in this example is the STP355 drug prepared in Example 9. C57BL/6J mice were subcutaneously inoculated with humanized PDL1 locus colorectal cancer tumor MC38-hPDL1 cells on the back, inoculation volume: 1×10^6/100 µL/mouse, inoculation location: above the right thigh of the mouse. When the average tumor volume reached 100 mm^3, group administration was started, divided into 4 groups, 8 animals/group. In this experiment, the doses of 4 mg/kg and 6 mg/kg were tested, and a model group was established, and the positive control group Tecentrip (atezolizumab) . The drug was administered twice a week for a total of 8 times. On the 0th, 3rd, 7th, 10th, 14th, 17th, 21st, 24th and 28th days, the tumor volume was measured with a vernier caliper, and the tumor growth inhibition rate TGI% was calculated according to the formula.
Calculation formula: TGI % = [1-(Ti-T0)/ (Vi-V0)] ×100%. • Ti represents the mean tumor volume of the treatment group at a certain time point, • T0 represents the mean tumor volume of the treatment group on day 0, • Vi represents the mean tumor volume of the model group at the same time point as Ti, • V0 represents the mean tumor volume of the model group at day 0.

B 16-F0 cells = assay: In vivo pharmacodynamics on melanoma (B16) in immunocompetent mouse model; details: positive control, 4 mg/kg i.p. QW
Protocol: The STP355 drug used in this example is the STP355 drug prepared in Example 9. C57BL/6J mice were inoculated with B 16-F0 cells subcutaneously on the back, inoculation volume: 1×10^6/100 µL/mice, 50 mice were inoculated, location: the right back of the mice. The average tumor volume was 80~100 mm^3 and started to be administered in groups. The dose of 2 mg/kg was administered intravenously, twice a week, for a total of 8 administrations, and the positive control group was administered with cisplatin, […], A total of 8 doses were administered.

[3] = A549 cells, homo, 24 h, 24well (Table 6), read-out: EC50 (nM, 24 h, 24well) A549
[4] = A549 cells, homo, 24h, 24well (second TGF-β1 table), read-out: EC50 (24h, nM, 24well) A549
[5] = BxPC3 cells, homo, 24 h, 24well (Table 6), read-out: EC50 (nM, 24 h, 24well) BxPC3
[6] = DLD-1 cells, Homo, 24h, 24well (second TGF-β1 table), read-out: EC50 (24h, nM, 24well) DLD-1
[7] = DLD-1 cells, homo, 24 h, 24well (Table 6), read-out: EC50 (nM, 24 h, 24well) DLD-1
[8] = Hucct cells, homo, 24 h, 24well (Table 6), read-out: EC50 (nM, 24 h, 24well) Hucct
[9] = Hucct cells, homo, 24h, 24well (second TGF-β1 table), read-out: EC50 (24h, nM, 24well) Hucct
[10] = PANC-1 cells, homo, 24 h, 24well (Table 6), read-out: EC50 (nM, 24 h, 24well) PANC-1
[11] = PANC-1 cells, homo, 24h, 24well (second TGF-β1 table), read-out: EC50 (24h, nM, 24well) PANC -1
[12] = RKO cells, homo, 24 h, 24well (Table 6), read-out: EC50 (nM, 24 h, 24well) RKO
[13] = RKO cells, homo, 24h, 24well (second TGF-β1 table), read-out: EC50 (24h, nM, 24well) RKO
[14] = SK-Hep1 cells, homo, 24 h, 24well (Table 6), read-out: EC50 (nM, 24 h, 24well) SK-Hep1
[15] = U87MG cells, homo, 24 h, 24well (Table 6), read-out: EC50 (nM, 24 h, 24well) U87MG
[16] = U87MG cells, homo, 24h, 24well (second TGF-β1 table), read-out: EC50 (24h, nM, 24well) U87M G
[17] = SK-Hep 1 cells, homo, 24h, 24well (second TGF-β1 table), read-out: EC50 (24h, nM, 24well) SK-Hep 1

Molecule	EC50 (TGF-β1 [1]; [3])	EC50 (TGF-β1 [1]; [4])	EC50 (TGF-β1 [1]; [5])	EC50 (TGF-β1 [1]; [6])	EC50 (TGF-β1 [1]; [7])	EC50 (TGF-β1 [1]; [9])	EC50 (TGF-β1 [1]; [10])	EC50 (TGF-β1 [1]; [11])	EC50 (TGF-β1 [1]; [12])	EC50 (TGF-β1 [1]; [13])	EC50 (TGF-β1 [1]; [14])	EC50 (TGF-β1 [1]; [15])	EC50 (TGF-β1 [1]; [16])	EC50 (TGF-β1 [2])	other results
TF1-21-hm6#: siRNA targeting TGF-β1 mRNA; sense SEQ ID 26, antisense SEQ ID 36 (sense CGGCAGCUGUACAUUGACUTT; antisense AGUCAAUGUACAGCUGCCGTT; sugars from the 5' end r19 d2, backbone not given here)	3.02 nM	3 nM	0.03 nM	0.9 nM	0.85 nM	0.007 nM	12.7 nM	12.7 nM	0.05 nM	0.048 nM	0.22 nM	0.12 nM	0.1 nM	0.11 nM	EC50 (TGF-β1 [1]; [8]): 0.01 nM
TF1-21-hm6#mod: Modified (2′F, 2′OME, phosphorylation) siRNA targeting TGF-β1; sense SEQ ID 148, antisense SEQ ID 152 (sense mCmGmGmCmAmGfCfUfGmUmAmCmAmUmUmGmAmCmUdTdT; antisense {P}-mAfGmUmCmAmAmUmGmUmAmCmAmGfCmUmGmCmCmGdTdT)	0.22 nM		0.01 nM						0.04 nM		0.59 nM	0.09 nM		0.1 nM	
TF1-20190711-1#mod: Modified siRNA targeting TGF-β1; sense SEQ ID 149, antisense SEQ ID 153 (sense GCAGAGUACACACAGCAUATT; antisense UAUGCUGUGUGUACUCUGCTT; sense: sugars from the 5' end m6 f3 m10 d2, backbone not given here; antisense: sugars from the 5' end mfmmmmmmmmmmmfmmmmmdd, 5' {P}, backbone not given here)														0.25 nM	
TF1-21-hm3#: siRNA targeting TGF-β1 mRNA; sense SEQ ID 23, antisense SEQ ID 33 (sense AACUAUUGCUUCAGCUCCATT; antisense UGGAGCUGAAGCAAUAGUUTT; sugars from the 5' end r19 d2, backbone not given here)	1.36 nM	1.4 nM	0.25 nM	0.2 nM	0.15 nM	0.029 nM	6.65 nM	6.6 nM	0.1 nM	0.1 nM	3.16 nM	0.29 nM	0.3 nM		EC50 (TGF-β1 [1]; BxPC 3 cells, homo, 24h, 24well (second TGF-β1 table), read-out: EC50 (24h, nM, 24well) BxPC 3): 11.9 nM; EC50 (TGF-β1 [1]; [8]): 0.03 nM
TF1-21-hm7#: siRNA targeting TGF-β1 mRNA; sense SEQ ID 27, antisense SEQ ID 37 (sense GGCAGCUGUACAUUGACUUTT; antisense AAGUCAAUGUACAGCUGCCTT; sugars from the 5' end r19 d2, backbone not given here)		0.1 nM		0.7 nM		0.031 nM		12 nM		0.1 nM			0.6 nM		
TF1-20190711-1#: siRNA targeting TGF-β1 mRNA; sense SEQ ID 1, antisense SEQ ID 2 (sense GCAGAGUACACACAGCAUATT; antisense UAUGCUGUGUGUACUCUGCTT; sugars from the 5' end r19 d2, backbone not given here)						0.002 nM								0.08 nM	EC50 (TGF-β1 [1]; [17]): 1.6 nM
TF1-20190711-5#: siRNA targeting TGF-β1 mRNA; sense SEQ ID 9, antisense SEQ ID 10 (sense GAGUACACACAGCAUAUAUTT; antisense AUAUAUGCUGUGUGUACUCTT; sugars from the 5' end r19 d2, backbone not given here)															EC50 (TGF-β1 [1]; [17]): 9.8 nM
TF1-21-hm3#mod: Modified (2′F, 2′OME, phosphorylation) siRNA targeting TGF-β1; sense SEQ ID 147, antisense SEQ ID 151 (sense mAmAmCmUmAmUfUfGfCmUmUmCmAmGmCmUmCmCmAdTdT; antisense {P}-mUfGmGmAmGmCmUmGmAmAmGmCmAfAmUmAmGmUmUdTdT)	0.04 nM	0.04 nM	0.17 nM		0.02 nM		0.02 nM		0.08 nM	0.08 nM	2.64 nM	1.48 nM			
atezolizumab [Tecentrip]															tumor weight versus model group (MC38-hPDL1 cells): significantly lower than the model group; tumor volume versus model control group (MC38-hPDL1 cells; day 7 to day 28): significantly smaller than that of the model control group
N.N.[Cl][Pt][Cl] [cisplatin]															anti-tumor effect (B 16-F0 cells): significant anti-tumor effects
